Measured values reported in PMC7159426 (American Journal of Respiratory and Critical Care Medicine, 2020).

Key:
[1] = molecular target: T1, sheep TMEM16A (Ovis aries, UniProt A0ACI6NM12); assay: whole-cell patch clamp; format: cell-based
T1 sequence (A0ACI6NM12 1-1040): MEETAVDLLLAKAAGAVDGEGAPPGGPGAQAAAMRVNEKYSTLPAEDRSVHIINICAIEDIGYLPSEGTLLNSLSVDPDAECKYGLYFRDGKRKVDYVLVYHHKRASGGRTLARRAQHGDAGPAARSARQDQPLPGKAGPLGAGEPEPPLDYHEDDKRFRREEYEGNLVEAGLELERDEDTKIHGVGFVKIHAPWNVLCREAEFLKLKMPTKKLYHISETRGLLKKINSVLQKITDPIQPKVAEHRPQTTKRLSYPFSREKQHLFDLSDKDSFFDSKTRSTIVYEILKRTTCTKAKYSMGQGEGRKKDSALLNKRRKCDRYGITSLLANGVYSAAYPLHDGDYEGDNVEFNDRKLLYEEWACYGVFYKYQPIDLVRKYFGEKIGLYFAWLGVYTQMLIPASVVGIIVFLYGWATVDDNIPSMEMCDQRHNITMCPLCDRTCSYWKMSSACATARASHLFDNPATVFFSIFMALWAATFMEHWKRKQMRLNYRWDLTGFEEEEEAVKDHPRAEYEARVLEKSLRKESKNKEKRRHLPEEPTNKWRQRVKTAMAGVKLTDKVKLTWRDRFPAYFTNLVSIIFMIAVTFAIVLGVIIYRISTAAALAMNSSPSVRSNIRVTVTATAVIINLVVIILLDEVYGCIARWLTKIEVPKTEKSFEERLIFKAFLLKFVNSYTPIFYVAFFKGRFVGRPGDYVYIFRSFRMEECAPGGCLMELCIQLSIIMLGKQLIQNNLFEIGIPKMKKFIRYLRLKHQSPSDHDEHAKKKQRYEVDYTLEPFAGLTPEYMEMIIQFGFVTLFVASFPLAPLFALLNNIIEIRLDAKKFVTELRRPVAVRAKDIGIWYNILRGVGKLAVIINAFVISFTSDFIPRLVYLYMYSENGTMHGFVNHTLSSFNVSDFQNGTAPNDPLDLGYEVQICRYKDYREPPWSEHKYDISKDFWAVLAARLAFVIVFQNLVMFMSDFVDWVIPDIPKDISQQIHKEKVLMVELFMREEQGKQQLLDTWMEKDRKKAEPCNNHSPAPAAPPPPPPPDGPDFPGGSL

[2] = molecular target: T2, TMEM16A (anoctamin-1) (Homo sapiens, UniProt Q5XXA6); assay: whole-cell patch clamp; format: cell-based
T2 sequence (Q5XXA6 1-986): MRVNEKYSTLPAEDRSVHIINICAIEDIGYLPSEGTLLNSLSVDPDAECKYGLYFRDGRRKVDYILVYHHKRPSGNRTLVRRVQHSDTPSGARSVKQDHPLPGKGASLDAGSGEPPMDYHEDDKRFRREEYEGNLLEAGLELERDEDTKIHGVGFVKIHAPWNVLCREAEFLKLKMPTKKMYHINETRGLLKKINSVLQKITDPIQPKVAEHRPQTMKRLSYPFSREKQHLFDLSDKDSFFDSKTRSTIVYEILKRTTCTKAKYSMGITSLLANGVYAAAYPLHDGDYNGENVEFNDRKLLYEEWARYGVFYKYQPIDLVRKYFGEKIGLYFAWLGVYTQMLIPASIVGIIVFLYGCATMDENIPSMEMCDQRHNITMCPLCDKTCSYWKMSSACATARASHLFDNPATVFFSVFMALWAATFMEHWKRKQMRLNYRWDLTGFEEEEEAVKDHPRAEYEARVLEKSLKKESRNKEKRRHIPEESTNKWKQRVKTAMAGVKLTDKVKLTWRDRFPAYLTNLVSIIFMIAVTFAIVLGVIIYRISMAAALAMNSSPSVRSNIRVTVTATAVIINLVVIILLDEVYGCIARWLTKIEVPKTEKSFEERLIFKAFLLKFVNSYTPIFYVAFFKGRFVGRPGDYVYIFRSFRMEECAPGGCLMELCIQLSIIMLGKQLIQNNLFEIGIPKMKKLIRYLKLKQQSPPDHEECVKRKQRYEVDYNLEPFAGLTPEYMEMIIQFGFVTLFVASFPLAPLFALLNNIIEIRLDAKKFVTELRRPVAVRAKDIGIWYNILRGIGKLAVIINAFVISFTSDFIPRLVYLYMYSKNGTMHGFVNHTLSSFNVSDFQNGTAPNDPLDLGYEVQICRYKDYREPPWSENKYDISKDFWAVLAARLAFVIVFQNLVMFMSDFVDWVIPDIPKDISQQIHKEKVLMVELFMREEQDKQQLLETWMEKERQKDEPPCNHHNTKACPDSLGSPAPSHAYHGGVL

EC50 [1]: 0.127 ± 0.021 µM
EC50 [2]: 0.116 ± 0.016 µM
Substance: ETX001
